Consider two molecules from PMC4502315, “High Potency of a Novel Resveratrol Derivative, 3,3′,4,4′-Tetrahydroxy-trans-stilbene, against Ovarian Cancer Is Associated with an Oxidative Stress-Mediated Imbalance between DNA Damage Accumulation and Repair” (Oxidative Medicine and Cellular Longevity, 2015).

The test system of data set [1] is OVCAR-3. Briefly: MTT viability assay, OVCAR-3. It is filed as cell-based. As to conditions: Homo sapiens, 24 h; for IC50: CalcuSyn. The protocol: (§1) Cell viability was assessed with the MTT test and with lactate dehydrogenase (LDH) release assay. As per the MTT method, normal and cancer cells were seeded into 96-well plates at high density and allowed to attach overnight. Then they were incubated in a medium containing 1.25 mg/mL of the MTT salt [3-(4,5-dimethylthiazol-2-yl)-2,5-diphenyltetrazolium bromide] for 24 h at 37°C. The generated formazan was solubilized with 20% sodium dodecyl sulphate and 50% N,N-dimethylformamide. Absorbance of the converted dye was recorded at 595 nm with a reference wavelength of 690 nm.
(§2) In order to examine the effect of 3,3′,4,4′-THS on the viability of ovarian cancer cells and to compare its activity with RVT, subconfluent cultures of A2780, OVCAR-3, and SKOV-3 cells were subjected to a wide range of stilbene concentrations (0–500 μM) for 24 h; then MTT and LDH release assays were performed.

For data set [2], the system named is HOSE cells. In words: MTT viability assay, HOSE cells. The class given is cell-based, human. As to conditions: 24 h; for IC50: Homo sapiens, CalcuSyn; for concentration up to which viability was unchanged: cytotoxicity tests (MTT and LDH release). Here is the method:
as §1, §2

Data set [3] concerns OVCAR-3. Briefly: LDH release assay, OVCAR-3. The class given is cell-based. As to conditions: Homo sapiens, 24 h; for IC50: CalcuSyn. Here is the method:
As per LDH release, the measurements were performed using the commercially available Pierce LDH Cytotoxicity Assay Kit (Pierce Biotechnology, Rockford, IL, USA). In this assay, cells with damaged plasma membranes release LDH into the culture environment; then the enzyme catalyses the conversion of lactate to pyruvate, which is accompanied by a reduction of NAD^+ to NADH. Afterwards, diaphorase uses NADH to reduce a tetrazolium salt to a formazan whose level is proportional to LDH activity. The absorbance emitted by the formazan was monitored at 490 nm with a reference wavelength of 680 nm.
as §2

A further data set has as its system A2780 cells. In words: ROS production (H2DCFDA), A2780. The class given is cell-based, human. The conditions noted are these: 24 h, 10, 50, 100 μM tested. Here is the method: ROS production was assessed in cells probed with a fluorescent dye, 2′,7′-dichlorodihydrofluorescein diacetate (H2DCFDA; 5 μM) (Molecular Probes, Eugene, USA) for 45 min at 37°C. Fluorescence intensity in cell lysates was monitored in a Victor2 spectrofluorometer with excitation at 485 nm and emission at 535 nm.

The subject of data set [4] is superoxide dismutase (SOD). In words: SOD activity in cell lysates, A2780. It is filed as cell-based, human. The conditions noted are these: 24 h, 10, 50, 100 μM tested. The protocol: (§3) Total activity of superoxide dismutase (SOD) was measured in cell lysates with a commercially available kit (R&D Systems Europe, Abingdon, UK), while the activity of catalase (CAT) was estimated by using the OxiSelect Catalase Activity Assay Kit (Cell Biolabs Inc., San Diego, CA, USA). Both assays were performed according to the manufacturer's instructions.

Data set [5] relates to superoxide dismutase (SOD). In words: SOD activity in cell lysates, HPMCs. It is filed as cell-based, human. The conditions noted are these: 24 h, percentage of control cells. The protocol: as §3
The test system of another data set is catalase (CAT). In words: CAT activity, HOSE cells. It is filed as cell-based, human. The conditions noted are these: 24 h, percentage of control cells. The protocol:
as §3

Another data set has as its system SKOV-3 cells. Briefly: Cell proliferation (CFDA SE), SKOV-3. The class given is cell-based, human. The conditions noted are these: low-density cultures, 24 h, 10, 50, 100 μM tested. The protocol: (§4) Cell proliferative potential was determined using Cell Proliferation Kit I (PromoKine, Heidelberg, Germany) according to the manufacturer's instructions. In brief, cells were probed for 15 min with 5-(and 6)-carboxyfluorescein diacetate, a succinimidyl ester (CFDA SE; 2 μM) which diffuses into cells, covalently binds to proteins, and becomes fluorescent upon its hydrolysis by intracellular esterases. The fluorescence emitted by the cells (the dye is inherited by the daughter cells through successive divisions) was recorded using a Victor2 spectrofluorometer (Perkin-Elmer, Turku, Finland) with excitation at 435 nm and emission at 535 nm.

Data set [6] relates to HOSE cells. In words: Cell proliferation (CFDA SE), HOSE cells. The class given is cell-based, human. As to conditions: 24 h, percentage of control cells. The protocol:
as §4

Another data set concerns OVCAR-3 cells. In words: SA-β-Gal activity (senescence), OVCAR-3. The class given is cell-based, human. The conditions noted are these: 24 h, 10, 50, 100 μM tested. Here is the method: The activity of SA-β-Gal in the cell extracts was quantified by measuring the rate of conversion of 4-methylumbelliferyl-β-D-galactopyranoside to 4-methylumbelliferone, as described in [19]. In order to visualize expression of the enzyme in the cancer cell cytoplasm, cytochemical staining for SA-β-Gal was performed according to Dimri et al..

The subject of the next data set is p38 MAPK. In words: p38 MAPK activation (FACE ELISA), HOSE cells. The class given is cell-based, human. The conditions noted are these: 24 h, percentage of control cells. Here is the method:
Activation of p38 MAPK was examined using the Fast Activated Cell-Based ELISA (FACE) p38 kit (Active Motif) according to the manufacturer's instructions. In brief, cells were fixed with 4% formaldehyde and incubated with a primary antibody that recognizes either phosphorylated p38 or total p38 overnight at 4°C. Then the cells were washed and incubated with a secondary HRP-conjugated antibody for 1 h at room temperature. The color reaction that developed was read using a spectrofluorometer at 450 nm wavelength.
The results were expressed as a ratio of phosphorylated to total p38 activity.
On the technique in general: ELISA stands for enzyme-linked immunosorbent assay.

For data set [7], the system named is ovarian cancer cells (A2780, OVCAR-3, SKOV-3). In words: Efficiency of 8-OH-dG repair after 24-h recovery, ovarian cancer cells. It is filed as cell-based, human. The conditions noted are these: all three cancer cell lines; 24-h stilbene exposure then 24-h recovery. Here is the method:
Oxidative DNA damage was assessed by measuring the 8-OH-dG concentration with a competitive immunoassay (Cell Biolabs Inc.), as per manufacturer's instructions. The efficiency of 8-OH-dG repair was estimated after cell recovery for 24 h in standard growth medium. In order to examine the activity of DNA glycosylase I, reverse transcription PCR was performed. RNA extraction was carried out using the RNA Bee (Tel-Test, Friendswood, Texas, USA) and purified according to the manufacturer's protocol. One microgram of RNA was reverse transcribed into cDNA with random hexamer primers, and cDNA was subjected to PCR. The profile of the replication cycles was denaturation at 94°C for 50 s, annealing at 58°C for 50 s, and polymerization at 72°C for 1 min. In each reaction, the expression of glyceraldehyde-3-phosphate dehydrogenase (GAPDH) served as the internal control. The primers used for PCR were as follows: hOGG1 forward, 5′-[…]-3′; hOGG1 reverse, 5′-TAGCCCGCCCTGTTCTTC-3′ designed to amplify a 551-bp region; GAPDH forward, 5′-CCATGGAGAAGGCTGGGG-3′; and GAPDH reverse 5′-[…]-3′ designed to amplify a 194-bp region (total number of cycles: 28). The PCR products were separated on 3% agarose gels stained with ethidium bromide and then visualized.
The cancer cells were treated with RVT and 3,3′,4,4′-THS to cause DNA injury; then they were washed and kept in standard growth medium to recover.

Setting [8] is: 10 μM, percentage of control cells.
Setting [9] is: 50 μM, percentage of control cells.
[10] abbreviates: 100 μM, percentage of control cells.

A value given as a limit tells only on which side of the number the result lay.

In general, viability refers to a read-out of living cells in per cent, often relative to untreated cells. A higher viability goes with better survival. For orientation: IC50 means the midpoint of a concentration-inhibition curve. For `Oc1ccc(/C=C/c2ccc(O)c(O)c2)cc1O` [3,3′,4,4′-THS, 3,3′,4,4′-tetrahydroxy-trans-stilbene], the viability at 10 µM in the data set on OVCAR-3 [1] (setting [8]) was 75 ± 3%; in the data set with OVCAR-3 [3] (setting [8]) it was 62 ± 12%. Also, the viability at 50 µM is 50 ± 3% in the data set with OVCAR-3 [1] (setting [9]) and 53 ± 3% in the data set on OVCAR-3 [3] (setting [9]). Further, the viability at 100 µM with OVCAR-3 [1] (setting [10]) amounted to 48 ± 3%; in the data set on OVCAR-3 [3] (setting [10]), 46 ± 3%. The IC50 in the data set with OVCAR-3 [1] was 50 µM; in the data set with HOSE cells [2] it was 502 µM; with OVCAR-3 [3] it was 85 µM. Moreover, in the data set on HOSE cells [2], the “concentration up to which viability was unchanged” value is at most 400 µM. In the data set on A2780 cells, the “generation of ROS, effect in words” value is reported as “markedly upregulated the generation of ROS”. Besides, the “SOD activity, effect in words” value in data set [4] is “increased SOD at 10 μM and decreased the activity of the enzyme at 50 and 100 μM”. The figures for the SOD in [5] (10 μM), in [5] (50 μM) and in data set [5] (100 μM) were 122 ± 4^∗# %, 141 ± 3^∗# % and 136 ± 4^∗# %, respectively. In addition, the values for the CAT in the data set with catalase (CAT) (10 μM), with catalase (CAT) (50 μM) and in the data set on catalase (CAT) (100 μM) were 132 ± 1^∗# %, 163 ± 4^∗# % and 162 ± 1^∗# %, respectively. For the same molecule, in the data set on SKOV-3 cells, the “proliferation, effect in words” value was “evident at as low a concentration as 10 μM”. The figures for the Proliferation in the data set with HOSE cells [6] (10 μM), with HOSE cells [6] (50 μM) and with HOSE cells [6] (100 μM) were 116 ± 2^∗ %, 103 ± 1% and 99 ± 5%, respectively. The “SA-β-Gal activity (senescence), effect in words” value in the data set with OVCAR-3 cells is on record as “significantly greater than those of RVT at each concentration”. Moreover, the “p38 MAPK” value in the data set with p38 MAPK (10 μM) was 106 ± 5%; with p38 MAPK (50 μM), 104 ± 4%; with p38 MAPK (100 μM), 100 ± 3%. The “8-OH-dG level after 24-h recovery in standard growth medium, in words” value in data set [7] is reported as “still markedly higher than in the unstimulated cells”.
Consider `Oc1ccc(/C=C/c2cc(O)cc(O)c2)cc1` [RVT, 3,4′,5-trihydroxy-trans-stilbene, reference compound], for which the results for the IC50 in the data set on OVCAR-3 [1], with HOSE cells [2] and with OVCAR-3 [3] were 480 µM, 485 µM and 525 µM, respectively. In addition, the “concentration up to which viability was unchanged” value in the data set on HOSE cells [2] is at most 400 µM. Moreover, in the data set with A2780 cells, the “generation of ROS, effect in words” value was “(at 50 and 100 μM) inhibited the production of ROS”. Further, in [4], the “SOD activity, effect in words” value is “upregulated activity of the enzyme”. In addition, the SOD is given as 110 ± 2^∗ % in [5] (10 μM), 112 ± 3^∗ % in data set [5] (50 μM) and 113 ± 2^∗ % in data set [5] (100 μM). The CAT was 121 ± 6^∗ % with catalase (CAT) (10 μM), 119 ± 4^∗ % with catalase (CAT) (50 μM) and 121 ± 6^∗ % with catalase (CAT) (100 μM). Besides, the “proliferation, effect in words” value in the data set on SKOV-3 cells is given as “such a low dose was effective in SKOV-3 cultures only”. Moreover, the Proliferation is 103 ± 4% with HOSE cells [6] (10 μM), 102 ± 1% in the data set on HOSE cells [6] (50 μM) and 104 ± 2% with HOSE cells [6] (100 μM). Also, in the data set on OVCAR-3 cells, the “SA-β-Gal activity (senescence), effect in words” value was “cellular senescence was elicited”. In addition, the results for the “p38 MAPK” value with p38 MAPK (10 μM), with p38 MAPK (50 μM) and in the data set on p38 MAPK (100 μM) were 103 ± 5%, 107 ± 10% and 108 ± 11%, respectively. For the same molecule, in data set [7], the “8-OH-dG level after 24-h recovery in standard growth medium, in words” value was “returned to basal values within 24 h”.
